Values after ≈ are worked out from the molar mass of the structure shown.
How the values were obtained:
[1] = system: Mycobacterium tuberculosis; assay: Antimycobacterial activity against Mycobacterium tuberculosis H37Rv ATCC 27294; assay type: functional
[2] = Cytotoxicity against mouse macrophage cells assessed as cell viability at 1 ug/100 ul after 24 hrs by MTT assay; assay type: cell-based; conditions: read-out: Activity
[3] = Cytotoxicity against mouse macrophage cells assessed as cell viability at 10 ug/100 ul after 24 hrs by MTT assay; assay type: cell-based; conditions: read-out: Activity
[4] = Cytotoxicity against mouse macrophage cells assessed as cell viability at 10 ug/100 ul after 72 hrs by MTT assay; assay type: cell-based; conditions: read-out: Activity
[5] = system: Mycobacterium tuberculosis; assay: Antimycobacterial activity against Mycobacterium tuberculosis H37Rv ATCC 27294 at 6.25 ug/mL by BACTEC 460 radiometric assay; assay type: functional
[6] = Cytotoxicity against mouse macrophage cells assessed as cell viability at 1 ug/100 ul after 72 hrs by MTT assay; assay type: cell-based; conditions: read-out: Activity

Structure (SMILES) | inhibition at 6.25 µg/mL [5] | other results
CC(O)c1cc(F)ccc1Oc1nc2ccc(NC(=O)Nc3cccc([N+](=O)[O-])c3)cc2cc1Cc1ccccc1 (stereo not given) | 98% | MIC [1]: 6.25 µg/mL (≈ 11.3 µM); viability at 24 h, 1 ug/100 ul [2]: 91%; viability at 24 h, 10 ug/100 ul [3]: 87%; viability at 72 h, 10 ug/100 ul [4]: 53%; viability at 72 h, 1 ug/100 ul [6]: 55%
COc1cccc(-c2ccn(CC(O)c3cc(F)ccc3Oc3nc4ccc([N+](=O)[O-])cc4cc3Cc3ccccc3)n2)c1 (stereo not given) | 7% | 
COc1ccc(-c2ccn(CC(O)c3cc(F)ccc3Oc3nc4ccc([N+](=O)[O-])cc4cc3Cc3ccccc3)n2)cc1 (stereo not given) | 5% | 
CC(c1cc(F)ccc1Oc1nc2ccc(-n3cc(-c4ccccc4)nn3)cc2cc1Cc1ccccc1)N1CCCCC1 (stereo not given) | 81% | 
O=[N+]([O-])c1ccc2nc(Oc3ccc(F)cc3C(O)CN3CCOCC3)c(Cc3ccccc3)cc2c1 (stereo not given) | 29% | 
COc1ccccc1NC(=O)Nc1ccc2nc(Oc3ccc(F)cc3C(C)O)c(Cc3ccccc3)cc2c1 (stereo not given) | 8% | 
COc1cccc(NC(=S)Nc2ccc3nc(Oc4ccc(F)cc4C(C)O)c(Cc4ccccc4)cc3c2)c1 (stereo not given) | 22% | 
COc1ccc(NC(=O)Nc2ccc3nc(Oc4ccc(F)cc4C(C)O)c(Cc4ccccc4)cc3c2)cc1 (stereo not given) | 25% | 
CC(c1cc(F)ccc1Oc1nc2ccc(-n3cc(-c4ccccc4)nn3)cc2cc1Cc1ccccc1)N1CCN(c2ccccn2)CC1 (stereo not given) | 29% | 
O=[N+]([O-])c1ccc2nc(Oc3ccc(F)cc3C(O)Cn3ccc(-c4ccc(C(F)(F)F)cc4)n3)c(Cc3ccccc3)cc2c1 (stereo not given) | 6% | 
CC(c1cc(F)ccc1Oc1nc2ccc(-n3cc(-c4ccccc4)nn3)cc2cc1Cc1ccccc1)n1ccnc1 (stereo not given) | 96% | MIC [1]: 3.12 µg/mL (≈ 5.51 µM); viability at 24 h, 1 ug/100 ul [2]: 100%; viability at 24 h, 10 ug/100 ul [3]: 88%; viability at 72 h, 10 ug/100 ul [4]: 58%; viability at 72 h, 1 ug/100 ul [6]: 61%
O=[N+]([O-])c1ccc2nc(Oc3ccc(F)cc3C(O)Cn3ccc(-c4cccc(Cl)c4)n3)c(Cc3ccccc3)cc2c1 (stereo not given) | 0% | 
O=[N+]([O-])c1ccc2nc(Oc3ccc(F)cc3C(O)CN3CCNCC3)c(Cc3ccccc3)cc2c1 (stereo not given) | 20% | 
O=[N+]([O-])c1ccc2nc(Oc3ccc(F)cc3C(O)Cn3cccn3)c(Cc3ccccc3)cc2c1 (stereo not given) | 53% | 
CC(c1cc(F)ccc1Oc1nc2ccc(-n3cc(-c4ccccc4)nn3)cc2cc1Cc1ccccc1)N1CCN(c2ccc(F)cc2)CC1 (stereo not given) | 20% | 
O=[N+]([O-])c1ccc2nc(Oc3ccc(F)cc3C(O)Cn3ccnc3)c(Cc3ccccc3)cc2c1 (stereo not given) | 58% | 
COc1cccc(NC(=O)Nc2ccc3nc(Oc4ccc(F)cc4C(C)O)c(Cc4ccccc4)cc3c2)c1 (stereo not given) | 94% | MIC [1]: 3.12 µg/mL (≈ 5.81 µM); viability at 24 h, 1 ug/100 ul [2]: 100%; viability at 24 h, 10 ug/100 ul [3]: 79%; viability at 72 h, 10 ug/100 ul [4]: 63%; viability at 72 h, 1 ug/100 ul [6]: 100%
CC(O)c1cc(F)ccc1Oc1nc2ccc(NC(=S)NCc3ccc(Cl)cc3)cc2cc1Cc1ccccc1 (stereo not given) | 37% | 
COc1ccc(NC(=S)Nc2ccc3nc(Oc4ccc(F)cc4C(C)O)c(Cc4ccccc4)cc3c2)cc1 (stereo not given) | 27% | 
COc1ccccc1NC(=S)Nc1ccc2nc(Oc3ccc(F)cc3C(C)O)c(Cc3ccccc3)cc2c1 (stereo not given) | 14% | 
